The structures appear in SMILES notation. Active and inactive are the calls of the source. The rule behind the calls is not given here.

The source of these data is ChEMBL document CHEMBL4420075, “Seriniquinones, melanoma-specific anticancer agents” (2016).

The target of series [1] is T1, Dermcidin (Homo sapiens) (UniProt P81605).
T1 sequence (whole entry): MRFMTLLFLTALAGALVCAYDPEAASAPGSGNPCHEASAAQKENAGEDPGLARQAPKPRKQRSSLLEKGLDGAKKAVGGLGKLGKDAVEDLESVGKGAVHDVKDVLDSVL
Kind of series: Covalent binding affinity to DCD-1L (unknown origin) at 50 uM incubated for 24 hrs by denatured SDS-PAGE gel electrophoresis.

Series [2] concerns HCT-116. As to the kind of experiment: Induction of autophagy in human HCT116 cells assessed as increase in of LC3A-II level incubated for 24 hrs by Western blot analysis. In kind it is functional, cell-based. A general note: Immunoblotting shows a protein as a band on a membrane.
Series [3] concerns HCT-116. As to the kind of experiment: Induction of apoptosis in human HCT116 cells assessed as induction of PARP cleavage at 3 to 30 uM incubated for 24 hrs by Western blot analysis. In kind it is functional, cell-based.
The test system of series [4] is HCT-116. Kind of series: Induction of DNA fragmentation in human HCT116 cells at 0.3 to 30 uM incubated for 24 hrs by FACS analysis. Format: functional, cell-based.
Series [5] relates to HCT-116. Kind of series: Induction of apoptosis in human HCT116 cells assessed as induction of caspase-3 cleavage at 3 to 30 uM incubated for 24 hrs by Western blot analysis. Format: functional, cell-based.
Series [6] deals with HCT-116. Kind of series: Induction of autophagy in human HCT116 cells assessed as increase in of LC3B-II level incubated for 24 hrs by Western blot analysis. In kind it is functional, cell-based.
Series [7] has as its system HCT-116. As to the kind of experiment: Induction of apoptosis in human HCT116 cells assessed as induction of caspase-9 cleavage at 3 to 30 uM incubated for 24 hrs by Western blot analysis. Format: functional, cell-based.
Series [8] relates to HCT-116. Kind of series: Induction of cell cycle arrest in human HCT116 cells assessed as accumulation at S phase at 0.3 to 30 uM incubated for 18 to 24 hrs by propidium iodide staining based assay. Format: functional.
Series [9] in a line: Drug accumulation in human PC3 cells assessed as sub-cellular localization in endoplasmic reticulum at 30 uM incubated for 1 hr by time course imaging assay. In kind it is ADME, subcellular. The conditions noted are these: pc-3, 1 h.
Series [10] has as its system HCT-116. As to the kind of experiment: Reduction in cyclin D3 protein expression in human HCT116 cells at 3 to 30 uM incubated for 24 hrs by Western blot analysis. Format: functional, cell-based.
Series [11] relates to HCT-116. Kind of series: Reduction in cyclin D1 protein expression in human HCT116 cells at 3 to 30 uM incubated for 24 hrs by Western blot analysis. In kind it is functional, cell-based.
Series [12] concerns HCT-116. As to the kind of experiment: Reduction in cyclin D2 protein expression in human HCT116 cells at 3 to 30 uM incubated for 24 hrs by Western blot analysis. In kind it is functional, cell-based.
Series [13] deals with HCT-116. Kind of series: Induction of apoptosis in human HCT116 cells assessed as induction of caspase-7 cleavage at 3 to 30 uM incubated for 24 hrs by Western blot analysis. Format: functional, cell-based.
A short description of series [14]: Drug accumulation in human MALME-3M cells assessed as sub-cellular localization at 30 uM incubated for 1 hr by DAPI staining based. Format: ADME, cell-based.
Series [15] is described as follows: Drug accumulation in human HCT116 cells assessed as sub-cellular localization at 5 uM incubated for 1 hr by DAPI staining based. Format: ADME, cell-based. The conditions noted are these: hct-116, 1 h.
A short description of series [16]: Drug accumulation in human HCT116 cells assessed as sub-cellular localization in endoplasmic reticulum measured up to 9 hrs by ER-tracker-blue based confocal microscopy. Format: ADME, subcellular. The conditions noted are these: hct-116, 9 h.
The subject of series [17] is PC-3. Kind of series: Induction of auto-phagocytosis in human PC3 cells at 30 uM incubated for 1 hr by time course imaging assay. In kind it is functional, cell-based.
Series [18] in a line: Drug accumulation in human MALME-3M cells assessed as sub-cellular localization in endoplasmic reticulum measured up to 9 hrs by ER-tracker-blue based confocal microscopy. Format: ADME, subcellular.
Series [19] in a line: Drug accumulation in human HCT116 cells assessed as sub-cellular localization in autophagosomes measured after 6 hrs by dansyl-cadaverine based confocal microscopy. Format: ADME, subcellular, Autophagosome. The conditions noted are these: hct-116, 6 h.
Series [20] can be described thus: Drug accumulation in human SF295 cells assessed as sub-cellular localization at 30 uM incubated for 1 hr by DAPI staining based. In kind it is ADME, cell-based. The conditions noted are these: sf-295, 1 h.
The nature of series [21]: Drug accumulation in human PC3M cells assessed as sub-cellular localization at 30 uM incubated for 1 hr by DAPI staining based. In kind it is ADME, cell-based. The conditions noted are these: pc-3m.
Series [22] is described as follows: Drug accumulation in human MALME-3M cells assessed as sub-cellular localization in autophagosomes measured after 6 hrs by dansyl-cadaverine based confocal microscopy. In kind it is ADME, subcellular, Autophagosome.
A short description of series [23]: Drug accumulation in human HCT8 cells assessed as sub-cellular localization at 30 uM incubated for 1 hr by DAPI staining based. In kind it is ADME, cell-based. Conditions: hct-8, 1 h.
For series [24], the target named is Glyceraldehyde-3-phosphate dehydrogenase (Homo sapiens) (UniProt P04406). Kind of series: Binding affinity to GADPH in human HCT116 cells at 50 uM incubated for 8 hrs by LC-MS/MS analysis. Format: cell-based.
Chain of Glyceraldehyde-3-phosphate dehydrogenase (Homo sapiens) (P04406 2-335 limits assumed): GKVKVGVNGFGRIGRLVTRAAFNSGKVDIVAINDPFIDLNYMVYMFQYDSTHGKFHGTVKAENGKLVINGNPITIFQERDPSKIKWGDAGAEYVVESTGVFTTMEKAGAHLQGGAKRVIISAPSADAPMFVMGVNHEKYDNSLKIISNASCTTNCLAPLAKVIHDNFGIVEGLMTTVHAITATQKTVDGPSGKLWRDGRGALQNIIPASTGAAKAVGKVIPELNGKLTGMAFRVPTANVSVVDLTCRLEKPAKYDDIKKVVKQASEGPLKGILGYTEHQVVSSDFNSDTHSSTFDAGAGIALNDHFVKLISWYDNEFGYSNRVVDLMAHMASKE
Series [25] is filed under the species Homo sapiens. Kind of series: Binding affinity to HSP70 in human HCT116 cells at 50 uM incubated for 8 hrs by LC-MS/MS analysis. Format: cell-based.
Series [26] is filed under the species Homo sapiens. Kind of series: Binding affinity to actin in human HCT116 cells at 50 uM incubated for 8 hrs by LC-MS/MS analysis. Format: cell-based.
In series [27] the target is Glyceraldehyde-3-phosphate dehydrogenase (Homo sapiens) (UniProt P04406). Kind of series: Covalent binding affinity to GADPH in human HCT116 cell lysates at 30 uM incubated for 8 hrs by Western blot analysis. Conditions: Lysate. In kind it is subcellular.
In series [28] the target is T1, Dermcidin (Homo sapiens). Kind of series: Covalent binding affinity to dermcidin in human HCT116 cell lysates at 30 uM incubated for 8 hrs by Western blot analysis. Format: subcellular. The conditions noted are these: Lysate.
The target in series [29] is T1, Dermcidin (Homo sapiens). As to the kind of experiment: Binding affinity to dermcidin in human HCT116 cell lysates at 3 to 30 uM incubated for 8 hrs by anti-IAF mAb based immunoprecipitation assay. Conditions: Lysate. Format: subcellular.
Series [30] deals with T1, Dermcidin (Homo sapiens). Kind of series: Binding affinity to dermcidin in human HCT116 cells at 50 uM incubated for 8 hrs by anti-IAF mAb based immunoprecipitation assay. Format: cell-based.
Series [31] has as its target T1, Dermcidin (Homo sapiens). Kind of series: Binding affinity to dermcidin in human HCT116 cells at 50 uM incubated for 8 hrs by LC-MS/MS analysis. In kind it is cell-based.

With `O=c1c2ccccc2c(=O)c2c1sc1c(=O)c3ccccc3c(=O)c12`, the outcome in series [1], in series [3], in [5], in [7], in series [10] and in series [11] was Active. Besides, the result in series [12], in [13] and in [17] was Active. In addition, the Activity result in series [2], in [4], in series [6] and in [8] was “Dose-dependent effect” in each case. Moreover, the Drug uptake result in [9], in [14], in series [15], in series [16], in series [18] and in series [19] was “Active” each time. Besides, the Drug uptake entry in series [20], in series [21], in series [22] and in series [23] was “Active” in each case.

Turning to `CN(C)c1ccc2c(CC(=O)NCCCCCCNC(=O)CCc3ccc4c(=O)c5c(sc6c(=O)c7ccccc7c(=O)c65)c(=O)c4c3)cc(=O)oc2c1`, the outcome in [24], in [25], in [26], in [27], in series [28] and in series [29] was Active. Also, the outcome in series [30] and in series [31] was Active. Also, the Drug uptake entry in series [16], in series [18], in series [19] and in [22] was “Active” each time.
